pIC50: −log10 of the molar value.

In the assay the target is T1, Δ^5 -lipoxygenase from rat basophilic leukemia (RBL-1) cells (Rattus norvegicus, UniProt P12527).
T1 construct: endogenous in cells; host or cells: RBL-1 rat basophilic leukemia cells (ATCC CRL 1378); 113,000×g supernatant (cytosolic fraction)
T1 sequence (P12527 1-673): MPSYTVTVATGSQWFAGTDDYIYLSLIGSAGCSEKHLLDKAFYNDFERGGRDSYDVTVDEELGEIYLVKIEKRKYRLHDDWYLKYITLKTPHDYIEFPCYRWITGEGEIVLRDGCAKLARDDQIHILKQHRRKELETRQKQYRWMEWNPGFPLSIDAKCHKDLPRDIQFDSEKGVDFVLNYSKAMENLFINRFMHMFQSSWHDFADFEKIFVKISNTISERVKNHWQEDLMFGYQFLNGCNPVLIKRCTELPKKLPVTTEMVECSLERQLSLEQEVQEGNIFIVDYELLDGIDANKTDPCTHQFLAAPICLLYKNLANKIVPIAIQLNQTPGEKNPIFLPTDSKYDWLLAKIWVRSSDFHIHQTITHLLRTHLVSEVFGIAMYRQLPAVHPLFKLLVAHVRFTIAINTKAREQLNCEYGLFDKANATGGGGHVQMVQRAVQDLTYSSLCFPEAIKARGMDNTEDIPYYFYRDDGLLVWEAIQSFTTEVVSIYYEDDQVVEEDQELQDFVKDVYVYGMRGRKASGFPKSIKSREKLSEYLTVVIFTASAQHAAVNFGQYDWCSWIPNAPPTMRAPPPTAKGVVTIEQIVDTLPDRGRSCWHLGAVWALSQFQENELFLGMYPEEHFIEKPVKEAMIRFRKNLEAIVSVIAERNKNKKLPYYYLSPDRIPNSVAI
The assay is described as follows: In vitro test for Δ^5 -lipoxygenase inhibitors (5-LO), RBL-1 cell enzyme, 5-HETE radioimmunoassay. The settings on record: RBL-1 5-LO; 10 min preincubation; 8.25 μM arachidonic acid, 10 min at 37° C.; 5-HETE formation; read-out: 5-LO IC-50. It is filed as biochemical. In short, it runs like this: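 Cytosolic (113,000×g supernatant) 5-LO from RBL-1 cells was preincubated with compound 10 min at 30° C, then reacted 10 min at 37° C with 8.25 μM arachidonic acid in Tris-HCl pH 7.2 with glutathione, indomethacin, CaCl2 and ATP. The reaction was stopped with citric acid (pH 3.5), and 5-HETE formed was quantified by radioimmunoassay.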
Consider `Cc1c(C)c2c(c(C)c1O)CCC(C)(CCc1ccccn1)O2` (racemic) [Example 58, rac-3,4-Dihydro-2,5,7,8-tetramethyl-2-[2-(2-pyridinyl)ethyl]-2H-1-benzopyran-6-ol], for which the pIC50 was 7.22.

With `COc1cccc(CCC2(C)CCc3c(C)c(O)c(C)c(C)c3O2)c1` (racemic) [Example 62, rac-3,4-Dihydro-2-[2-(3-methoxyphenyl)ethyl]-2,5,7,8-tetramethyl-2H-1-benzopyran-6-ol], the pIC50 is 6.92.

Turning to `COC(=O)c1cc(CCC2(C)CCc3c(C)c(O)c(C)c(C)c3O2)ccc1O` (racemic) [Example 63, rac-5-[2-(3,4-Dihydro-6-hydroxy-2,5,7,8-tetramethyl-2H-1-benzopyran-2-yl)ethyl]-2-hydroxybenzoic acid methyl ester], the pIC50 was 7.10.

For `Cc1c(C)c2c(c(C)c1O)CCC(C)(C#Cc1cccs1)O2` (racemic) [Example 4, rac-3,4-Dihydro-2,5,7,8-tetramethyl-2-[(2-thienyl)ethynyl]-2H-1-benzopyran-6-ol], the pIC50 is 7.64.

For `COc1cc(C=O)cc(C#CC2(C)CCc3c(C)c(O)c(C)c(C)c3O2)c1O` (racemic) [Example 28, rac-3-[(3,4-Dihydro-6-hydroxy-2,5,7,8-tetramethyl-2H-1-benzopyran-2-yl)ethynyl]-4-hydroxy-5-methoxybenzaldehyde], the pIC50 was 6.89.

Turning to `Cc1c(C)c2c(c(C)c1O)CCC(C)(C#Cc1cncc3ccccc13)O2` (racemic) [Example 34, rac-3,4-Dihydro-2-[(4-isoquinolinyl)ethynyl]-2,5,7,8-tetramethyl-2H-1-benzopyran-6-ol], the pIC50 was 6.00.

For `Cc1c(C)c2c(c(C)c1O)CCC(C)(C#Cc1ccccc1)O2` (racemic) [Example 1, rac-3,4-Dihydro-2,5,7,8-tetramethyl-2-(phenylethynyl)-2H-1-benzopyran-6-ol], the pIC50 was 7.40.

Regarding `COc1cc(C=NO)cc(C#CC2(C)CCc3c(C)c(O)c(C)c(C)c3O2)c1O` (racemic) [Example 30, rac-3-[(3,4-Dihydro-6-hydroxy-2,5,7,8-tetramethyl-2H-1-benzopyran-2yl)ethynyl]-4-hydroxy-5-methoxybenzaldehydeoxime], the pIC50 was 6.80.

Take `Cc1c(C)c2c(c(C)c1O)CCC(C)(CCc1ccc(-c3cccnc3)cc1)O2` (racemic) [Example 64, rac-3,4-Dihydro-2,5,7,8-tetramethyl-2-{2-[4-(3-pyridinyl)-phenyl]ethyl}-2H-1-benzopyran-6-ol]: the pIC50 was 7.34.

As to `Cc1c(C)c2c(c(C)c1O)CCC(C)(C#Cc1ccc3c(c1)N(C)C(=O)CO3)O2` (stereo not shown) [Example 48], the pIC50 is 7.49.

Regarding `Cc1c(C)c2c(c(C)c1O)CCC(C)(C#Cc1cccc3ccccc13)O2` (racemic) [Example 39, rac-3,4-Dihydro-2,5,7,8-tetramethyl-2-(1-naphthyl)ethynyl-2H-1-benzopyran-6-ol], the pIC50 was 6.30.

On to `COc1cc(CO)cc2cc(C3(C)CCc4c(C)c(O)c(C)c(C)c4O3)oc12` (racemic) [Example 55, rac-2-(3,4-Dihydro-6-hydroxy-2,5,7,8-tetramethyl-2H-1-benzopyran-2-yl)-7-methoxybenzofuran-5-methanol], for which the pIC50 was 8.52.

Regarding `Cc1c(C)c2c(c(C)c1O)CCC(C)(CCc1ccc(-c3ccccn3)s1)O2` (racemic) [Example 65, rac-3,4-Dihydro-2,5,7,8-tetramethyl-2-{2-[5-(2-pyridinyl)-2-thienyl]ethyl}-2H-1-benzopyran-6ol], the pIC50 was 6.77.

For the molecule `Cc1c(C)c2c(c(C)c1O)CCC(C)(C#Cc1ccccn1)O2` (racemic) [Example 15, rac-3,4-Dihydro-2,5,7,8-tetramethyl1-2-[(2-pyridinyl)ethynyl]-2H-1-benzopyran-6-ol], the pIC50 was 7.80.

Turning to `COc1ccc(CCC2(C)CCc3c(C)c(O)c(C)c(C)c3O2)cc1OC(C)=O` (racemic) [Example 60, rac-2-{2-[3-(Acetyloxy)-4-methoxyphenyl]ethyl}-3,4-dihydro-2,5,7,8-tetramethyl-2H-1-benzopyran-6ol], the pIC50 is 7.25.

Take `Cc1c(C)c2c(c(C)c1O)CCC(C)(C#Cc1csc3ccccc13)O2` (racemic) [Example 16, rac-[2-(Benzo[b]thiophen-3-yl)ethynyl]-3.4-dihydro-2,5,7,8-tetramethyl-2H-1-benzopyran-2H-1-benzopyran-6-ol]: the pIC50 was 8.80.

Consider `Cc1c(C)c2c(c(C)c1O)CCC(C)(CCc1cccnc1)O2` (racemic) [Example 59, rac-3,4-Dihydro-2,5,7,8-tetramethyl-2-[2-(3-pyridinyl)ethyl]-2H-1-benzopyran-6-ol], for which the pIC50 is 7.52.

As for `Cc1c(C)c2c(c(C)c1O)CCC(C)(C#Cc1ccc(F)c(F)c1)O2` (racemic) [Example 36, rac-2-[(3,4-Difluorophenyl)ethynyl]-3,4-dihydro-2,5,7,8-tetramethyl-2H-1-benzopyran-6-ol], the pIC50 was 6.92.

As for `Cc1c(C)c2c(c(C)c1O)CCC(C)(CCc1ccc(O)c(O)c1)O2` (racemic) [Example 61, rac-4-[2-(3,4-Dihydro-6-hydroxy-2,5,7,8-tetramethyl-2H-1-benzopyran-2-yl)ethyl]-1,2-benzenediol], the pIC50 is 7.82.

For the origin of these results see patent US5015661A, “Chromanes and their pharmaceutical compositions and methods” (Hoffmann-La Roche Inc., priority 1989, dated 1991).
